This is an account of results in publication PMC11589483, “Preparation and anti-colon cancer effect of a novel curcumin analogue (CA8): in vivo and in vitro evaluation” (Frontiers in Pharmacology, 2024).

Data set [1] concerns Caco-2 cells. In words: Apoptosis assay (Annexin V-FITC/propidium iodide flow cytometry). It is filed as cell-based, human. As to conditions: 4, 8, 16 μM, 24 h. Here is the method: The apoptotic effect of CA8 was assessed in Caco-2 cells according to the kit instructions. First, Caco-2 cells were treated with CA8 at dose of 4, 8, or 16 μM/L for 24 h. The cells were harvested and suspended in 500 μL annexin-binding buffer. Subsequently, the cells were stained with Annexin V-FITC for 15 min and then incubated with propidium iodide for 5 min at room temperature in the dark. Finally, all samples were evaluated via flow cytometry (FACS Calibur, BD, San Jose, CA, United States). The results obtained were analyzed using the FlowJo software, and the apoptotic rate was calculated.
(In general: A flow cytometer gives signals particle by particle.)

For data set [2], the system named is breast cancer cells MCF-7. In words: MTT antiproliferative assay, MCF-7. In kind it is cell-based. To be noted: Homo sapiens. Here is the method:
(§1) The human cancer cell lines A549, HepG2, MCF-7, Caco-2, and HeLa and the normal human liver cell line LO2 were all obtained from Shanghai Cell Bank of China. All cells were cultured in RPMI 1640 or DMEM supplemented with 10% fetal bovine serum, 100 U/mL penicillin, and 100 μg/mL streptomycin and incubated at 37°C under 5% CO2 (HEPA incubator class100 Thermo company). The medium was replaced three times a week. Cells used in all were in the exponential growth phase.
(§2) The cell inhibition rate was evaluated using the MTT assay. Briefly, cells were seeded in a 96-well plate at a density of 3–4 × 10^3 cells per well and incubated at 37°C for 24 h. The MCACs to be tested were dissolved in dimethyl sulfoxide (DMSO, Merck, Germany) and diluted to five concentrations (3.75, 7.5, 15, 30, 60 μM/L) with RPMI 1640 medium, with each dose analyzed in quadruplicate. The concentration of DMSO was always maintained below 1‰, a concentration that is nontoxic to cells. After incubation for 24 or 48 h, MTT reagent (5 mg/mL) was added to each well and the samples were incubated for 3 h at 37°C in the dark. The absorbance of formazan crystals dissolved in 150 µL of DMSO was measured at 570 nm using a microplate reader to identify the cytotoxic effect of the analogues.

Data set [3] concerns Caco-2 cells. Briefly: Hoechst 33,258 staining. It is filed as cell-based, human. As to conditions: Caco-2, 24 h. Here is the method: Caco-2 cells were seeded in 6-well plates at a density of 5 × 10^5 cells per well and incubated overnight, followed by the addition of the prescribed concentration (4, 8, or 16 μM/L) of CA8. After 24 h of incubation, cells were fixed and stained with Hoechst 33,258.

Data set [4] in a line: Solubility in water by HPLC. It is filed as physicochemical. As to conditions: 25°C, mass of solute dissolved at saturation in 100 g of solvent. Here is the method: The solubility of the synthesized compounds in water was determined using high performance liquid chromatography (HPLC). First, 1.000 g of each compound was accurately weighed, placed in 100 g of water, and stirred at 25°C for a period of time. Then, the reaction system was allowed to stand for 1 h. The supernatant was quantitatively taken, diluted with methanol to volume, and centrifuged, and the solubility was determined using HPLC.

The subject of data set [5] is cervical cancer cells HeLa. Briefly: MTT antiproliferative assay, HeLa. In kind it is cell-based. To be noted: Homo sapiens. Here is the method: as §1, §2
A general note: Formazan colour is commonly taken as a measure of viable cells.

The subject of the next data set is Caco-2 xenograft tumors. Briefly: In vivo anticancer activity, Caco-2 xenograft. Here is the method: Twenty 5-week-old male BALB nude mice purchased from SPF (Beijing) Biotechnology Co., Ltd. were used for the in vivo pharmacodynamic experiment of CA8. Caco-2 cells (6 × 10^6 cells in 100 μL PBS) were harvested and subcutaneously injected into the right hip of the mice. Then, they were divided into four groups when the tumor volume reached 100 mm^3 and treated with saline, CU (100 mg/kg), tegafur (50 mg/kg), or CA8 (100 mg/kg) via gavage every other day. Tumor size and body weight were measured and recorded every other day. At the end of the experiment, the mice were sacrificed and tumors were harvested and weighed. Tumor volumes were calculated by measuring length (L) and width (W) according to the following formula: V = 0.5 × L × W^2. The tumor tissue was embedded in paraffin, cut into slices, stained with HE, and observed under a light microscope.

The test system of data set [6] is normal human liver cell line LO2. In words: MTT assay, normal liver cells LO2. It is filed as cell-based. As for the experimental part:
as §1, §2

For a further data set, the system named is lung cancer cells A549. Briefly: MTT antiproliferative assay, A549. It is filed as cell-based. As to conditions: Homo sapiens. As for the experimental part:
as §1, §2

Data set [7] deals with colon cancer cells Caco-2. In words: MTT antiproliferative assay, Caco-2. It is filed as cell-based, human. To be noted: for SI Caco2: logarithm of ratio IC50 LO2 / IC50 cancer cells; for IC50: Homo sapiens, read-out: IC50 Caco2. Here is the method: as §1, §2
The subject of the next data set is Ki67. In words: Immunohistochemistry of tumor tissue. It is filed as in vivo, BALB nude mice. As to conditions: Caco-2 xenograft, 100 mg/kg.
The subject of data set [8] is Caco-2 cells. Briefly: Clonogenic assay. In kind it is cell-based, human. As to conditions: 4, 8, or 16 μM/L, 6 h exposure. As for the experimental part: Caco-2 cells were seeded into a 6-well plate at a density of 1 × 10^3 cells per well and incubated overnight. Then, the medium was replaced, and CA8 was added at the prescribed concentrations (4, 8, or 16 μM/L). After 6 h, the drug-containing medium was replaced with RPMI 1640 medium.
Caco-2 cells in 6-well plates were incubated for 1–2 weeks until the appearance of the colonies, followed by staining with crystal violet and incubation for 1 h at room temperature. After staining, images were captured accordingly.

The next data set relates to liver cancer cells HepG2. Briefly: MTT antiproliferative assay, HepG2. It is filed as cell-based. As to conditions: Homo sapiens. Here is the method: as §1, §2

Where two headings read alike, the source gives them in different places.

In general, IC50 refers to the midpoint of a concentration-inhibition curve. In the case of `COc1cc(/C=C2\CN(C(C)C)C/C(=C\c3cc(OC)c(O)c(OC)c3)C2=O)cc(OC)c1O` [CA8], the “induction of apoptosis” value in the data set with Caco-2 cells [1] was “induced more apoptosis than CU at high and medium concentrations”. Moreover, the IC50 in data set [2] (MCF7, 24 h) worked out at 10.9 ± 4.21 µM; in data set [2] (MCF7, 48 h) it was 7.23 ± 1.55 µM; in data set [5] (24 h) it was 4.26 ± 0.52 µM; in data set [5] (48 h) it was 1.96 ± 0.09 µM; in data set [6] (24 h), 4.3 ± 0.21 µM; in [6] (48 h), 2 ± 0.04 µM. For the same molecule, the IC50 was 5.66 ± 0.25 µM in the data set on lung cancer cells A549 (A549, 24 h); 9.31 ± 1.08 µM in the data set with lung cancer cells A549 (A549, 48 h); 4.06 ± 0.89 µM in data set [7] (Caco-2, 24 h); 1.71 ± 0.06 µM in data set [7] (Caco-2, 48 h); 1.79 ± 1.32 µM in the data set with liver cancer cells HepG2 (HepG2, 24 h); 1.84 ± 0.33 µM with liver cancer cells HepG2 (HepG2, 48 h). Moreover, in the data set with Caco-2 cells [3], the “nuclear morphology / apoptotic cells” value is listed as “many apoptotic cells were observed”. Also, in [4], the Solubility was determined as 403.44 mg/100g. The molecule also gave a tumor inhibition rate with Caco-2 xenograft tumors (Caco-2 xenograft nude mice, 100 mg/kg via gavage every other day) of 63.93%. Besides, the “HE staining of tumor mass” value in the data set on Caco-2 xenograft tumors (Caco-2 xenograft, 100 mg/kg) was “large necrotic area in the tumor mass”. In addition, the “inhibitory effect on tumor growth” value in the data set on Caco-2 xenograft tumors (Caco-2 xenograft, CA8 100 mg/kg, CU 100 mg/kg, tegafur 50 mg/kg, gavage every other day) was “more significant inhibitory effect on tumor growth than CU and tegafur”. For the same molecule, the “body weight change / toxicity during therapy” value with Caco-2 xenograft tumors (nude mice, 13 days of therapy, 100 mg/kg gavage) is on record as “did not lead to a significant toxicity”. The “SI Caco2” value in data set [7] (24 h) is 0.02; in [7] (48 h), 0.07. In addition, in [7] (48 h), the “cytotoxicity on Caco-2 cells compared with CU” value worked out at 19.2 times. In addition, the “expression of Ki67 in tumor tissues” value in the data set with Ki67 is “significantly reduced the expression of Ki67”. In the data set with Caco-2 cells [8], the “Caco-2 colony formation” value is recorded as “showed Caco-2 colony formation inhibition”.
